Results on 2 compounds are retold here after BindingDB's records for PubMed 27607900 (Cardiff University, 2016).

Assay [1] in a line: Inhibition of ACT (unknown origin).
Another assay has as its system Enterococcus faecalis. In words: Antimicrobial activity against Enterococcus faecalis ATCC 29212 assessed as microbial growth inhibition.

On to `CC(C)OC(=O)[C@H](Cc1ccccc1)NP(=O)(N[C@@H](Cc1ccccc1)C(=O)OC(C)C)OCOCCn1cnc2c(N)nc(F)nc21`, for which the IC50 in assay [1] came out at 0.145 µM. Take `CCCC(C)CC(C)CC(C)/C=C(C)/C=C/C(O)C(C)C(=O)OC1C(O)CN2CC1NC[C@H]1O[C@@H](OC([C@H]3O[C@@H](n4ccc(=O)[nH]c4=O)[C@H](O)[C@@H]3OS(=O)(=O)O)C2C(=O)O)[C@H](O)[C@@H]1O` (some centres not stated): in the assay with Enterococcus faecalis, the IC50 amounted to 0.012 µM.

The term IC50 denotes the concentration that gives 50% inhibition.
